Results reported in patent US11312719B2, “9-substituted amino triazolo quinazoline derivatives as adenosine receptor antagonists, pharmaceutical compositions and their use” (Merck Sharp & Dohme Corp., priority 2018, dated 2022).

Tests used:
human A2A receptors = human A2A receptors (Homo sapiens (Human), UniProt P29274); assay: A2A antagonism in cAMP cell-based assay (LANCE cAMP, HEK293); details: HEK293 cells expressing human A2A receptor
How it was run: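 HEK293 cells expressing human A2A or A2B, in HBSS/5 mM HEPES/200 nM rolipram, were preincubated with compound (0.5–10,000 nM, 0.25% DMSO) 30 min at 37° C. Adenosine was then added from 300 nM (A2A) or 600 nM (A2B) solution for 30 min.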

human A2B receptors = human A2B receptors (Homo sapiens (Human), UniProt P29275); assay: A2B antagonism in cAMP cell-based assay (LANCE cAMP, HEK293); details: HEK293 cells expressing human A2B receptor
human A2B receptors, sequence (P29275 whole entry): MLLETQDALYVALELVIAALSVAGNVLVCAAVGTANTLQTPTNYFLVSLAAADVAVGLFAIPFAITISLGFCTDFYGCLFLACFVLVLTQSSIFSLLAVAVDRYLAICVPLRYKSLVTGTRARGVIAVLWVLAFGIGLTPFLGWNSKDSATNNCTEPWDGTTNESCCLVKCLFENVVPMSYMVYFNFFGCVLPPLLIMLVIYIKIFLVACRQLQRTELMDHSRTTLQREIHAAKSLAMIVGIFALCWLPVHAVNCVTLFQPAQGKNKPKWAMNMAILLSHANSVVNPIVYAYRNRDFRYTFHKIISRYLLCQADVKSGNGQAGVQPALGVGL
Procedure: Measurement of A2A and A2B Antagonism in cAMP Cell-Based Assay
The ability of compounds to antagonize human A2A and A2B adenosine receptors was determined using a kit to measure changes in intracellular cyclic AMP levels (LANCE cAMP 384 Kit, Perkin Elmer, Cat. No. AD0264). HEK293 cells recombinantly expressing either human A2A or A2B receptors, previously frozen in Recovery Medium (Life Technologies, Cat. No. 12648-010) were thawed and diluted into stimulation buffer (HBSS (Hyclone SH 30268.01), 5 mM HEPES (Gibco 15630-106), 200 nM rolipram (Tocris, Cat. No. 0905), and 1.5% (V/v) BSA stabilizer (kit component). The cell suspension was centrifuged at 200×g for 10 min and then resuspended in stimulation buffer, supplemented with a 1:10 000 dilution of Alexa Fluor 647 anti-cAMP antibody, to a density of 6.0×10^5 cells/mL. A Labcyte Echo 550 acoustic dispenser was used to transfer up to 25 nL of test compound dissolved in DMSO into the wells of a dry Optiplate-384 plate (Perkin Elmer, Cat. No. 6008289). All subsequent liquid additions were performed using a multichannel pipettor. Next, 5 μL of the cell suspension was added to the wells of the Optiplate-384 and incubated for 30 min. at 37° C. and 5% CO2 in a humidified environment. After this time 5 μL of either 300 nM or 600 nM adenosine (Sigma Cat. No. A9251) for A2A and A2B respectively was added and incubated for 30 minutes at 37° C. and 5% CO2 in a humidified environment. At this time detection mix was prepared by combining the LANCE Eu-W8044 labeled streptavidin and Biotin-cAMP in detection buffer according to the manufacturers protocol. 10 μL of the detection mix was added to each well of the Optiplate-384 which was covered with a plate seal and incubated under ambient conditions for 2 hours prior to reading the plate using an Envision (Perkin Elmer, Waltham, Mass.) multimode plate reader. Data was normalized by defining minimal effect as stimulation in the presence of 0.25% (v/v) DMSO and maximal effect as stimulation in the presence of 1 μM ZM241385 (Cayman, Cat. No. 1036). Curve fitting of the percent effect data versus the log of compound concentration used a 4-parameter concentration response curve fitting algorithm to calculate IC50 values. Compound concentrations tested were 10,000, 3,333, 1,111, 370.4, 123.4, 41.2, 13.7, 4.6, 1.5 and 0.5 nM with 0.25% residual DMSO.

human A2A receptors, sequence (P29274 whole entry): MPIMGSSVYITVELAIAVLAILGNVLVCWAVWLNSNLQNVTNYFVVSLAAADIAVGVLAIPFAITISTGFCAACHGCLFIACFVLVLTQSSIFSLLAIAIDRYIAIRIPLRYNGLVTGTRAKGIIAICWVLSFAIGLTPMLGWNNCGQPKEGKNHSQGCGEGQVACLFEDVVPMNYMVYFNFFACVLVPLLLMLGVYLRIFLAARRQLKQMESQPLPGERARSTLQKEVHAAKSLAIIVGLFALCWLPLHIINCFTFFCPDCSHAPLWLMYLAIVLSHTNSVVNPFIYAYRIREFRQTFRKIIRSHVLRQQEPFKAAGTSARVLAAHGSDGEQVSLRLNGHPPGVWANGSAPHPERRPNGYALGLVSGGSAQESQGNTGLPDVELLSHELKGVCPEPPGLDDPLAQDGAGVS

Row | Structure (SMILES) | IC50 (human A2A receptors) | IC50 (human A2B receptors) | A2B cAMP % Inh. @10000 nM (human A2B receptors; at 10000 nM)
1 | COc1cc2nc(N)n3nc([C@@H]4CCCN(c5cnn(C(C)C(C)O)c5C)C4)nc3c2cc1F (single isomer, unassigned) [Example 195, (2S,3S or 2R,3R)-3-(4-((R)-3-(5-amino-9-fluoro-8-methoxy-[1,2,4]triazolo[1,5-c]quinazolin-2-yl)piperidin-1-yl)-5-methyl-1H-pyrazol-1-yl)butan-2-ol] | 3.4 nM | 389 nM | –
2 | COc1cc2nc(N)n3nc([C@@H]4CCCN(c5cnn(C(C)C(C)O)c5C)C4)nc3c2cc1F (single isomer, unassigned) [Example 196, (2R,3R or 2S,3S)-3-(4-((R)-3-(5-amino-9-fluoro-8-methoxy-[1,2,4]triazolo[1,5-c]quinazolin-2-yl)piperidin-1-yl)-5-methyl-1H-pyrazol-1-yl)butan-2-ol] | 3.7 nM | 475 nM | –
3 | CC(O)C(C)n1cc(N2CCC[C@@H](c3nc4c5cc(F)cc(F)c5nc(N)n4n3)C2)cn1 (single isomer, unassigned) [Example 197, (2S,3S or 2R,3R)-3-(4-((R)-3-(5-amino-7,9-difluoro-[1,2,4]triazolo[1,5-c]quinazolin-2-yl)piperidin-1-yl)-1H-pyrazol-1-yl)butan-2-ol] | 6.4 nM | 93 nM | –
4 | CC(O)C(C)n1cc(N2CCC[C@@H](c3nc4c5cc(F)cc(F)c5nc(N)n4n3)C2)cn1 (single isomer, unassigned) [Example 198, (2R,3R or 2S,3S)-3-(4-((R)-3-(5-amino-7,9-difluoro-[1,2,4]triazolo[1,5-c]quinazolin-2-yl)piperidin-1-yl)-1H-pyrazol-1-yl)butan-2-ol] | 4.3 nM | 52.4 nM | –
5 | COc1cc2nc(N)n3nc([C@@H]4CCCN(c5cnn(C(C)C(C)O)c5)C4)nc3c2cc1F (single isomer, unassigned) [Example 199, (2R,3S or 2S,3R)-3-(4-((R)-3-(5-amino-9-fluoro-8-methoxy-[1,2,4]triazolo[1,5-c]quinazolin-2-yl)piperidin-1-yl)-1H-pyrazol-1-yl)butan-2-ol] | 2.5 nM | 97.5 nM | –
6 | COc1cc2nc(N)n3nc([C@@H]4CCCN(c5cnn(C(C)C(C)O)c5)C4)nc3c2cc1F (single isomer, unassigned) [Example 200, (2S,3R or 2R,3S)-3-(4-((R)-3-(5-amino-9-fluoro-8-methoxy-[1,2,4]triazolo[1,5-c]quinazolin-2-yl)piperidin-1-yl)-1H-pyrazol-1-yl)butan-2-ol] | 2.5 nM | 102 nM | –
7 | CC(O)C(C)n1cc(N2CCC[C@@H](c3nc4c5cc(F)cc(F)c5nc(N)n4n3)C2)cn1 (single isomer, unassigned) [Example 203, (2R,3S or 2S,3R)-3-(4-((R)-3-(5-amino-7,9-difluoro-[1,2,4]triazolo[1,5-c]quinazolin-2-yl)piperidin-1-yl)-1H-pyrazol-1-yl)butan-2-ol] | 7.7 nM | 53.2 nM | –
8 | CC(O)C(C)n1cc(N2CCC[C@@H](c3nc4c5cc(F)cc(F)c5nc(N)n4n3)C2)cn1 (single isomer, unassigned) [Example 204, (2S,3R or 2R,3S)-3-(4-((R)-3-(5-amino-7,9-difluoro-[1,2,4]triazolo[1,5-c]quinazolin-2-yl)piperidin-1-yl)-1H-pyrazol-1-yl)butan-2-ol] | 7.8 nM | 87.7 nM | –
9 | COc1cc2nc(N)n3nc([C@@H]4C[C@H](C)CN(c5cn([C@@H](C)[C@H](C)O)nc5C)C4)nc3c2cc1F (single isomer, unassigned) [Example 208, (2S,3S or 2R,3R)-3-(4-((3R,5S or 3S,5R)-3-(5-amino-9-fluoro-8-methoxy-[1,2,4]triazolo[1,5-c]quinazolin-2-yl)-5-methylpiperidin-1-yl)-3-methyl-1H-pyrazol-1-yl)butan-2-ol] | 0.7 nM | 2800 nM | –
10 | COc1cc2nc(N)n3nc([C@@H]4C[C@H](C)CN(c5cn([C@H](C)[C@@H](C)O)nc5C)C4)nc3c2cc1F (single isomer, unassigned) [Example 209, (2R,3R or 2S,3S)-3-(4-((3R,5S or 3S,5R)-3-(5-amino-9-fluoro-8-methoxy-[1,2,4]triazolo[1,5-c]quinazolin-2-yl)-5-methylpiperidin-1-yl)-3-methyl-1H-pyrazol-1-yl)butan-2-ol] | 0.7 nM | 635 nM | –
11 | COc1cc2nc(N)n3nc([C@H]4C[C@@H](C)CN(c5cn([C@H](C)[C@@H](C)O)nc5C)C4)nc3c2cc1F (single isomer, unassigned) [Example 210, (2R,3R or 2S,3S)-3-(4-((3S,5R or 3R,5S)-3-(5-amino-9-fluoro-8-methoxy-[1,2,4]triazolo[1,5-c]quinazolin-2-yl)-5-methylpiperidin-1-yl)-3-methyl-1H-pyrazol-1-yl)butan-2-ol] | 16.2 nM | – | 35% Inh.

Continued, in another order:

Row | IC50 (human A2A receptors) | IC50 (human A2B receptors) | Structure (SMILES) | A2B cAMP % Inh. @10000 nM (human A2B receptors; at 10000 nM)
12 | 1.3 nM | 251 nM | COc1cc(F)cc2c1nc(N)n1nc([C@@H]3CCCN(c4cnn(C(C)C(C)O)c4C)C3)nc21 (single isomer, unassigned) [Example 193, (2S,3S or 2R,3R)-3-(4-((R)-3-(5-amino-9-fluoro-7-methoxy-[1,2,4]triazolo[1,5-c]quinazolin-2-yl)piperidin-1-yl)-5-methyl-1H-pyrazol-1-yl)butan-2-ol] | –
13 | 1.7 nM | 318 nM | COc1cc(F)cc2c1nc(N)n1nc([C@@H]3CCCN(c4cnn(C(C)C(C)O)c4C)C3)nc21 (single isomer, unassigned) [Example 194, (2R,3R or 2S,3S)-3-(4-((R)-3-(5-amino-9-fluoro-7-methoxy-[1,2,4]triazolo[1,5-c]quinazolin-2-yl)piperidin-1-yl)-5-methyl-1H-pyrazol-1-yl)butan-2-ol] | –
14 | 1.9 nM | 38.4 nM | COc1cc(F)cc2c1nc(N)n1nc([C@@H]3CCCN(c4cnn(C(C)C(C)O)c4)C3)nc21 (single isomer, unassigned) [Example 201, (2R,3S or 2S,3R)-3-(4-((R)-3-(5-amino-9-fluoro-7-methoxy-[1,2,4]triazolo[1,5-c]quinazolin-2-yl)piperidin-1-yl)-1H-pyrazol-1-yl)butan-2-ol] | –
15 | 1.4 nM | 62.4 nM | COc1cc(F)cc2c1nc(N)n1nc([C@@H]3CCCN(c4cnn(C(C)C(C)O)c4)C3)nc21 (single isomer, unassigned) [Example 202, (2S,3R or 2R,3S)-3-(4-((R)-3-(5-amino-9-fluoro-7-methoxy-[1,2,4]triazolo[1,5-c]quinazolin-2-yl)piperidin-1-yl)-1H-pyrazol-1-yl)butan-2-ol] | –
16 | 7 nM | 1150 nM | COc1cc(F)cc2c1nc(N)n1nc(C3CC(C)CN(c4cn(C(C)(C)C(C)O)nc4C)C3)nc21 (single isomer, unassigned) [Example 205, (R or S)-3-(4-((3R,5S or 3S,5R)-3-(5-amino-9-fluoro-7-methoxy-[1,2,4]triazolo[1,5-c]quinazolin-2-yl)-5-methylpiperidin-1-yl)-3-methyl-1H-pyrazol-1-yl)-3-methylbutan-2-ol] | –
17 | 13 nM | 4310 nM | COc1cc(F)cc2c1nc(N)n1nc(C3CC(C)CN(c4cn(C(C)(C)C(C)O)nc4C)C3)nc21 (single isomer, unassigned) [Example 206, (S or R)-3-(4-((3R,5S or 3S,5R)-3-(5-amino-9-fluoro-7-methoxy-[1,2,4]triazolo[1,5-c]quinazolin-2-yl)-5-methylpiperidin-1-yl)-3-methyl-1H-pyrazol-1-yl)-3-methylbutan-2-ol] | –
18 | 0.9 nM | 10.4 nM | COc1cc(F)cc2c1nc(N)n1nc(C3CC(C)CN(c4cn(C(C)(C)C(C)O)nc4C)C3)nc21 (single isomer, unassigned) [Example 207, (R or S)-3-(4-((3S,5R or 3R,5S)-3-(5-amino-9-fluoro-7-methoxy-[1,2,4]triazolo[1,5-c]quinazolin-2-yl)-5-methylpiperidin-1-yl)-3-methyl-1H-pyrazol-1-yl)-3-methylbutan-2-ol] | –
